Patent publication US8952024B2, “Herbicidal pyrimidone derivatives” (E I du Pont de Nemours and Company, priority 2009, dated 2015)

How the values were obtained:
Format in all cases: in vivo
[1] = test system: morningglory (Ipomoea spp.); assay: Test A pre-/postemergence plant response
Summary of the method: (§1)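 Plants grown from seed in a loam soil and sand mix received test compounds both as a preemergence soil spray and, at the same time, as a postemergence spray at the one- to two-leaf stage. Injury was judged visually against untreated controls roughly ten days later, 0 meaning no effect and 100 complete control.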

[2] = test system: pigweed (Amaranthus retroflexus); assay: Test A pre-/postemergence plant response
Summary of the method: as §1

[3] = test system: giant foxtail (Setaria faberii); assay: Test B pre-/postemergence plant response; details: for Foxtail, Giant plant response rating (0 to 100 scale): 62 g ai/ha, 0 is no effect, 13 to 15 days
Summary of the method: (§2)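 Visual ratings on a 0–100 scale (100 = complete control) were made versus untreated controls 13–15 days after treatment in a greenhouse. Compounds in surfactant-containing non-phytotoxic solvent were applied preemergence to seeds in loam–sand blend or postemergence to 1- to 4-leaf plants (2–18 cm).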

[4] = test system: goosegrass (Eleusine indica); assay: Test B pre-/postemergence plant response; details: for Goosegrass plant response rating (0 to 100 scale): 62 g ai/ha, 0 is no effect, 13 to 15 days
Summary of the method: as §2

[5] = test system: johnsongrass (Sorghum halepense); assay: Test B pre-/postemergence plant response; details: for Johnsongrass plant response rating (0 to 100 scale): 62 g ai/ha, 0 is no effect, 13 to 15 days
Summary of the method: as §2

[6] = test system: morningglory (Ipomoea coccinea); assay: Test B pre-/postemergence plant response; details: for Morningglory plant response rating (0 to 100 scale): 62 g ai/ha, 0 is no effect, 13 to 15 days
Summary of the method: as §2

[7] = test system: wheat (Triticum aestivum); assay: Test B pre-/postemergence plant response; details: for Wheat plant response rating (0 to 100 scale): 62 g ai/ha, 0 is no effect, 13 to 15 days
Summary of the method: as §2

[8] = test system: woolly cupgrass (Eriochloa villosa); assay: Test B pre-/postemergence plant response; details: for Cupgrass, Woolly plant response rating (0 to 100 scale): 62 g ai/ha, 0 is no effect, 13 to 15 days
Summary of the method: as §2

[9] = test system: barnyardgrass (Echinochloa crus-galli); assay: Test B flooded paddy test; details: for Plant response rating, Flood, Barnyardgrass: 250 g ai/ha, flooded paddy test, visual rating on 0 to 100 scale (0 no effect, 100 complete control) after 13 to 15 days; for Plant response rating, Barnyardgrass: Flood (flooded paddy test), 13 to 15 days; for Barnyardgrass plant response rating: Flood, 31 g ai/ha, scale 0 to 100 (0 no effect, 100 complete control)
Summary of the method: (§3)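 Ratings are visual, 0–100 (100 = complete control), taken versus untreated controls 13 to 15 days after treatment in the greenhouse. Compound went straight into paddy water held 3 cm above soil, applied to 2-leaf-stage plants of four species.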

[10] = test system: ducksalad (Heteranthera limosa); assay: Test B flooded paddy test; details: for Plant response rating, Flood, Ducksalad: 250 g ai/ha, flooded paddy test, visual rating on 0 to 100 scale (0 no effect, 100 complete control) after 13 to 15 days; for Plant response rating, Ducksalad: Flood (flooded paddy test), 13 to 15 days; for Ducksalad plant response rating: Flood, 31 g ai/ha, scale 0 to 100 (0 no effect, 100 complete control)
Summary of the method: as §3

[11] = test system: rice (Oryza sativa); assay: Test B flooded paddy test; details: for Plant response rating, Flood, Rice: 250 g ai/ha, flooded paddy test, visual rating on 0 to 100 scale (0 no effect, 100 complete control) after 13 to 15 days; for Plant response rating, Rice: Flood (flooded paddy test), 13 to 15 days; for Rice plant response rating: Flood, 31 g ai/ha, scale 0 to 100 (0 no effect, 100 complete control)
Summary of the method: as §3

[12] = test system: umbrella sedge (Cyperus difformis); assay: Test B flooded paddy test; details: for Plant response rating, Flood, Sedge, Umbrella: 250 g ai/ha, flooded paddy test, visual rating on 0 to 100 scale (0 no effect, 100 complete control) after 13 to 15 days; for Plant response rating, Sedge, Umbrella: Flood (flooded paddy test), 13 to 15 days; for Sedge, Umbrella plant response rating: Flood, 31 g ai/ha, scale 0 to 100 (0 no effect, 100 complete control)
Summary of the method: as §3

[13] = Postemergence, 125 g ai/ha, 0 to 100 scale where 0 is no effect and 100 is complete control
[14] = Postemergence, 500 g ai/ha, 0 to 100 scale, 0 = no effect, 100 = complete control, approx. ten days
[15] = Preemergence, 125 g ai/ha, 0 to 100 scale, 0 = no effect, 100 = complete control
[16] = Preemergence, 500 g ai/ha, visual injury, 0 to 100 scale (0 no effect, 100 complete control), approx. ten days
[17] = 31 g ai/ha, postemergence, scale 0 to 100, 0 is no effect, 100 is complete control
[18] = postemergence, 100 is complete control
[19] = Postemergence, 250 g ai/ha, scale 0 to 100 (0 no effect, 100 complete control)
[20] = Postemergence, 125 g ai/ha, visual rating after 13 to 15 days, scale 0 (no effect) to 100 (complete control)
[21] = 62 g ai/ha, scale of 0 to 100 where 0 is no effect and 100 is complete control
[22] = 125 g ai/ha, scale 0 to 100, 0 is no effect, 100 is complete control

COCCOCCn1c(-c2ccccc2)ncc(C(=O)C2=C(O)CCCC2=O)c1=O [Compound 91]
Plant response rating, Morningglory [1, 13]: 100 | Plant response rating, Morningglory [1, 14]: 100 | Plant response rating, Morningglory [1, 15]: 20 | Plant response rating, Morningglory [1, 16]: 80 | Plant response rating, Pigweed [2, 13]: 100 | Plant response rating, Pigweed [2, 14]: 100 | Plant response rating, Pigweed [2, 15]: 90 | Plant response rating, Pigweed [2, 16]: 90 | Plant response rating, Foxtail, Giant [3, 17]: 85 | Foxtail, Giant plant response rating (0 to 100 scale) [3, 18]: 98 | Plant response rating, Foxtail, Giant [3, 19]: 98 | Plant response rating, Goosegrass [4, 17]: 30 | Goosegrass plant response rating (0 to 100 scale) [4, 18]: 75 | Plant response rating, Goosegrass [4, 19]: 85 | Plant response rating, Johnsongrass [5, 17]: 65 | Johnsongrass plant response rating (0 to 100 scale) [5, 18]: 90 | Plant response rating, Johnsongrass [5, 19]: 100 | Plant response rating, Morningglory [6, 17]: 75 | Morningglory plant response rating (0 to 100 scale) [6, 18]: 90 | Plant response rating, Morningglory [6, 19]: 98 | Plant response rating, Wheat [7, 17]: 0 | Wheat plant response rating (0 to 100 scale) [7, 18]: 10 | Plant response rating, Wheat [7, 19]: 50 | Plant response rating, Cupgrass, Woolly [8, 17]: 70 | Cupgrass, Woolly plant response rating (0 to 100 scale) [8, 18]: 85 | Plant response rating, Cupgrass, Woolly [8, 20]: 98 | Plant response rating, Cupgrass, Woolly [8, 19]: 98 | Plant response rating, Flood, Barnyardgrass [9]: 65 | Plant response rating, Barnyardgrass [9, 21]: 20 | Plant response rating, Barnyardgrass [9, 22]: 60 | Barnyardgrass plant response rating [9]: 15 | Plant response rating, Flood, Ducksalad [10]: 100 | Plant response rating, Ducksalad [10, 21]: 90 | Plant response rating, Ducksalad [10, 22]: 90 | Ducksalad plant response rating [10]: 65 | Plant response rating, Flood, Rice [11]: 15 | Plant response rating, Rice [11, 21]: 15 | Plant response rating, Rice [11, 22]: 15 | Rice plant response rating [11]: 0 | Plant response rating, Flood, Sedge, Umbrella [12]: 100 | Plant response rating, Sedge, Umbrella [12, 21]: 95 | Plant response rating, Sedge, Umbrella [12, 22]: 100 | Sedge, Umbrella plant response rating [12]: 75

O=C1CCCC(O)=C1C(=O)c1cnc(C2CCCC2)n(-c2ccccc2)c1=O [Compound 92]
Plant response rating, Morningglory [1, 13]: 100 | Plant response rating, Morningglory [1, 14]: 100 | Plant response rating, Morningglory [1, 15]: 0 | Plant response rating, Morningglory [1, 16]: 80 | Plant response rating, Pigweed [2, 13]: 100 | Plant response rating, Pigweed [2, 14]: 100 | Plant response rating, Pigweed [2, 15]: 100 | Plant response rating, Pigweed [2, 16]: 100 | Plant response rating, Foxtail, Giant [3, 17]: 65 | Foxtail, Giant plant response rating (0 to 100 scale) [3, 18]: 75 | Plant response rating, Foxtail, Giant [3, 19]: 98 | Plant response rating, Goosegrass [4, 17]: 60 | Goosegrass plant response rating (0 to 100 scale) [4, 18]: 70 | Plant response rating, Goosegrass [4, 19]: 90 | Plant response rating, Johnsongrass [5, 17]: 20 | Johnsongrass plant response rating (0 to 100 scale) [5, 18]: 85 | Plant response rating, Johnsongrass [5, 19]: 100 | Plant response rating, Morningglory [6, 17]: 80 | Morningglory plant response rating (0 to 100 scale) [6, 18]: 95 | Plant response rating, Morningglory [6, 19]: 100 | Plant response rating, Wheat [7, 17]: 0 | Wheat plant response rating (0 to 100 scale) [7, 18]: 0 | Plant response rating, Wheat [7, 19]: 0 | Plant response rating, Cupgrass, Woolly [8, 17]: 10 | Cupgrass, Woolly plant response rating (0 to 100 scale) [8, 18]: 25 | Plant response rating, Cupgrass, Woolly [8, 20]: 65 | Plant response rating, Cupgrass, Woolly [8, 19]: 70 | Plant response rating, Flood, Barnyardgrass [9]: 45 | Plant response rating, Barnyardgrass [9, 21]: 0 | Plant response rating, Barnyardgrass [9, 22]: 20 | Barnyardgrass plant response rating [9]: 0 | Plant response rating, Flood, Ducksalad [10]: 85 | Plant response rating, Ducksalad [10, 21]: 30 | Plant response rating, Ducksalad [10, 22]: 70 | Ducksalad plant response rating [10]: 20 | Plant response rating, Flood, Rice [11]: 40 | Plant response rating, Rice [11, 21]: 0 | Plant response rating, Rice [11, 22]: 25 | Rice plant response rating [11]: 0 | Plant response rating, Flood, Sedge, Umbrella [12]: 85 | Plant response rating, Sedge, Umbrella [12, 21]: 65 | Plant response rating, Sedge, Umbrella [12, 22]: 70 | Sedge, Umbrella plant response rating [12]: 65
